Assay results taken from the supplement of paper PMC10307832.

Assays:
Test in all cases: relative viability (nuclei count vs DMSO), 5 days (fraction); higher = more cells survive
[1] = compound: NC1(c2ccc(-c3nc4ccn5c(=O)[nH]nc5c4cc3-c3ccccc3)cc2)CCC1 [MK-2206] + CS(=O)(=O)N1CCN(Cc2cc3nc(-c4cccc5[nH]ncc45)nc(N4CCOCC4)c3s2)CC1 [Pictilisib] (partner 1 µM)
Summary of the method: (§1)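 Lung cancer cell lines in 1536-well plates got either a single drug or a fixed anchor-drug dose together with five library-drug doses (not always all listed) in √10 steps, by pin tool, on the day after seeding. Nuclei were counted after 5 days, and relative viability is the treated-to-vehicle ratio of nuclei counts. Values are medians of duplicate plates.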

[2] = compound: CS(=O)(=O)N1CCN(Cc2cc3nc(-c4cccc5[nH]ncc45)nc(N4CCOCC4)c3s2)CC1 [Pictilisib] + C[C@@H](Oc1cc(-c2cnn(C3CCNCC3)c2)cnc1N)c1c(Cl)ccc(F)c1Cl [Crizotinib] (partner 1 µM)
Summary of the method: as §1

[3] = compound: CS(=O)(=O)N1CCN(Cc2cc3nc(-c4cccc5[nH]ncc45)nc(N4CCOCC4)c3s2)CC1 [Pictilisib] + Cc1nc(NC(=O)N2CCC[C@H]2C(N)=O)sc1-c1ccnc(C(C)(C)C(F)(F)F)c1 [Alpelisib] (partner 2 µM)
Summary of the method: as §1

[4] = compound: CS(=O)(=O)N1CCN(Cc2cc3nc(-c4cccc5[nH]ncc45)nc(N4CCOCC4)c3s2)CC1 [Pictilisib] + Cc1cc(Nc2cc(N3CCN(C)CC3)nc(Sc3ccc(NC(=O)C4CC4)cc3)n2)n[nH]1 [Tozasertib] (partner 0.1 µM)
Summary of the method: as §1

[5] = compound: NC1(c2ccc(-c3nc4ccn5c(=O)[nH]nc5c4cc3-c3ccccc3)cc2)CCC1 [MK-2206] + COc1cccc2cc(-c3nc([C@H]4CC[C@H](C(=O)O)CC4)n4ncnc(N)c34)[nH]c12 [OSI-027] (partner 0.5 µM)
Summary of the method: as §1

Cell Line	relative viability ([1]; first compound 0.01 µM)	relative viability ([1]; first compound 0.03162 µM)	relative viability ([1]; first compound 0.3162 µM)	relative viability ([1]; first compound 1 µM)	relative viability ([2]; first compound 0.02 µM)	relative viability ([2]; first compound 0.06325 µM)	relative viability ([2]; first compound 0.6325 µM)	relative viability ([2]; first compound 2 µM)	relative viability ([3]; first compound 0.02 µM)	relative viability ([3]; first compound 0.06325 µM)	relative viability ([3]; first compound 0.6325 µM)	relative viability ([3]; first compound 2 µM)	relative viability ([4]; first compound 0.02 µM)	relative viability ([4]; first compound 0.06325 µM)	relative viability ([4]; first compound 0.6325 µM)	relative viability ([4]; first compound 2 µM)	relative viability ([5]; first compound 0.01 µM)	relative viability ([5]; first compound 0.03162 µM)	relative viability ([5]; first compound 0.3162 µM)	relative viability ([5]; first compound 1 µM)
NCI-H441	0.501	0.467	0.424	0.48	0.513	0.632	0.504	0.388	0.735	0.833	0.698	0.541	0.654	0.542	0.527	0.289	0.922	0.473	0.428	0.393
LCLC-103H	0.642	0.688	0.54	0.701	1.05	1.04	0.882	0.71	0.946	1.03	0.818	0.848	0.636	0.456	0.339	0.26	0.476	0.459	0.445	0.408
HOP-62	0.563	1.11	0.728	0.48	1.07	0.972	1.01	0.671	1.09	0.854	0.788	0.935	0.319	0.415	0.369	0.304	0.808	0.808	0.74	0.828
NCI-H1355	0.486	0.475	0.454	0.4	1.1	0.983	0.876	0.606	0.828	0.741	0.865	0.505	0.582	0.474	0.484	0.183	0.394	0.433	0.289	0.235
COR-L23	0.816	0.834	0.741	0.686	0.584	0.75	0.668	0.594	0.821	0.804	0.8	0.572	0.245	0.185	0.139	0.136	0.793	0.712	0.689	0.611
HCC-44	0.804	0.619	0.496	0.392	0.781	0.783	0.882	0.455	0.893	0.79	0.674	0.412	0.952	0.922	0.629	0.279	0.496	0.441	0.472	0.205
A-427	0.766	0.676	0.732	0.717	0.979	0.829	0.908	0.603	1.13	1.09	1.06	1.04	0.202	0.187	0.19	0.145	0.529	0.47	0.439	0.372
